Measurements reported in patent publication US20230085307A1, “PYRIDAZINONE COMPOUND AND HERBICIDE” (NISSAN CHEMICAL CORPORATION, priority 2019, published 2023).

Tests used:
[1] = tested on: lambsquarters; experiment: Test Example 4: herbicidal effect by soil treatment (Table 19, symbol O); format: in vivo, lambsquarters (Chenopodium album); settings: amount of applied herbicide 320 g/ha
How it was run: (§1)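 Applied as a water-diluted emulsion, the compound was sprayed onto soil covering newly sown seeds. Evaluation came three weeks after application, in a greenhouse held at 25° C. to 30° C.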

[2] = tested on: redroot pigweed; experiment: Test Example 4: herbicidal effect by soil treatment (Table 19, symbol N); format: in vivo, redroot pigweed (Amaranthus retroflexus); settings: amount of applied herbicide 320 g/ha
How it was run: as §1

[3] = tested on: Japanese bulrush; experiment: Test Example 1: herbicidal activity, application before weed generation under submerged conditions (Table 16, symbol B); format: in vivo, Japanese bulrush (Schoenoplectus juncoides); settings: amount of applied herbicide 320 g/ha
Excerpt: (§2) [Test Example 1] Herbicidal Activity Test by Application before Weed Generation under Submerged Conditions After alluvial soil was placed into 1/10000 are of Wagner pot, water was poured and mixed to form a submerged condition having a water depth of 4 cm. Seeds of late watergrass, Japanese bulrush, and oval-leafed pondweed were sowed in a mixed manner in the aforementioned pot, and then 2.5 leaf stage rice plant seedlings were transplanted thereto. On the day of sowing seeds, the emulsion agent of the compound of the present invention prepared according to Formulation Example 2 was diluted with water so as to achieve a predetermined herbicide amount, and the diluted emulsion agent was applied to the surface of the water. The pot was placed in a greenhouse at 25° C. to 30° C. for growth of the plants. Three weeks after the herbicide application, the effect of the herbicide on each plant was evaluated according to the following criteria. Evaluation Criteria 5: Herbicidal rate of 90% or more (almost completely withered) 4: Herbicidal rate of 70% or more and less than 90% 3: Herbicidal rate of 40% or more and less than 70% 2: Herbicidal rate of 20% or more and less than 40% 1: Herbicidal rate of 5% or more and less than 20% 0: Herbicidal rate of 5% or less (almost no effect)

[4] = tested on: velvetleaf; experiment: Test Example 4: herbicidal effect by soil treatment (Table 19, symbol M); format: in vivo, velvetleaf (Abutilon theophrasti); settings: amount of applied herbicide 320 g/ha
How it was run: as §1

[5] = tested on: persian speedwell; experiment: Test Example 5: herbicidal effect by foliage application, plastic box (Table 20, symbol R); format: in vivo, Persian speedwell (Veronica persica); settings: foliage application, 320 g/ha, three weeks after application
How it was run: (§3)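 Sow seeds spot-wise in sterilized diluvial soil; cover with ~1.5 cm soil. Grow 14 days in greenhouse, 25° C. to 30° C. Spray foliage with emulsion diluted to predetermined amount. Rate effect after 3 weeks.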

[6] = tested on: barnyard grass; experiment: Test Example 4: herbicidal effect by soil treatment (Table 19, symbol H); format: in vivo, barnyard grass (Echinochloa crus-galli); settings: amount of applied herbicide 320 g/ha
How it was run: as §1

[7] = tested on: wild oat; experiment: Test Example 5: herbicidal effect by foliage application, plastic box (Table 20, symbol I); format: in vivo, wild oat (Avena fatua); settings: foliage application, 320 g/ha, three weeks after application
How it was run: as §3

[8] = tested on: chickweed; experiment: Test Example 4: herbicidal effect by soil treatment (Table 19, symbol P); format: in vivo, common chickweed (Stellaria media); settings: amount of applied herbicide 320 g/ha
How it was run: as §1

[9] = tested on: lambsquarters; experiment: Test Example 5: herbicidal effect by foliage application, plastic box (Table 20, symbol O); format: in vivo, lambsquarters (Chenopodium album); settings: foliage application, 320 g/ha, three weeks after application
How it was run: as §3

[10] = tested on: windgrass; experiment: Test Example 4: herbicidal effect by soil treatment (Table 19, symbol L); format: in vivo, windgrass (Apera spica-venti); settings: amount of applied herbicide 320 g/ha
How it was run: as §1

[11] = tested on: rice flat sedge; experiment: Test Example 3: herbicidal effect by foliage application, Wagner pot (Table 18, symbol E); format: in vivo, rice flat sedge (Cyperus iria)
How it was run: (§4)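 Plants were sown in alluvial soil held under 0.1–0.5 cm standing water and grown 14 days in a greenhouse at 25–30 °C. An emulsifiable formulation, water-diluted to the set dose, was then sprayed onto the foliage, and effects were scored three weeks later using previously defined criteria.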

[12] = tested on: barnyard grass; experiment: Test Example 3: herbicidal effect by foliage application, Wagner pot (Table 18, symbol H); format: in vivo, barnyard grass (Echinochloa crus-galli)
How it was run: as §4

[13] = tested on: southern crabgrass; experiment: Test Example 5: herbicidal effect by foliage application, plastic box (Table 20, symbol F); format: in vivo, southern crabgrass (Digitaria ciliaris); settings: foliage application, 320 g/ha, three weeks after application
How it was run: as §3

[14] = tested on: persian speedwell; experiment: Test Example 4: herbicidal effect by soil treatment (Table 19, symbol R); format: in vivo, Persian speedwell (Veronica persica); settings: amount of applied herbicide 320 g/ha
How it was run: as §1

[15] = tested on: velvetleaf; experiment: Test Example 5: herbicidal effect by foliage application, plastic box (Table 20, symbol M); format: in vivo, velvetleaf (Abutilon theophrasti); settings: foliage application, 320 g/ha, three weeks after application
How it was run: as §3

[16] = tested on: barnyard grass; experiment: Test Example 5: herbicidal effect by foliage application, plastic box (Table 20, symbol H); format: in vivo, barnyard grass (Echinochloa crus-galli); settings: foliage application, 320 g/ha, three weeks after application
How it was run: as §3

[17] = tested on: green foxtail; experiment: Test Example 5: herbicidal effect by foliage application, plastic box (Table 20, symbol G); format: in vivo, green foxtail (Setaria viridis); settings: foliage application, 320 g/ha, three weeks after application
How it was run: as §3

[18] = tested on: blackgrass; experiment: Test Example 4: herbicidal effect by soil treatment (Table 19, symbol J); format: in vivo, blackgrass (Alopecurus myosuroides); settings: amount of applied herbicide 320 g/ha
How it was run: as §1

[19] = tested on: redroot pigweed; experiment: Test Example 5: herbicidal effect by foliage application, plastic box (Table 20, symbol N); format: in vivo, redroot pigweed (Amaranthus retroflexus); settings: foliage application, 320 g/ha, three weeks after application
How it was run: as §3

[20] = tested on: wild oat; experiment: Test Example 4: herbicidal effect by soil treatment (Table 19, symbol I); format: in vivo, wild oat (Avena fatua); settings: amount of applied herbicide 320 g/ha
How it was run: as §1

[21] = tested on: Chinese sprangletop; experiment: Test Example 3: herbicidal effect by foliage application, Wagner pot (Table 18, symbol D); format: in vivo, chinese sprangletop (Leptochloa chinensis)
How it was run: as §4

[22] = tested on: late watergrass; experiment: Test Example 1: herbicidal activity, application before weed generation under submerged conditions (Table 16, symbol A); format: in vivo, late watergrass (Echinochloa oryzicola); settings: amount of applied herbicide 320 g/ha
Excerpt: as §2

[23] = tested on: windgrass; experiment: Test Example 5: herbicidal effect by foliage application, plastic box (Table 20, symbol L); format: in vivo, windgrass (Apera spica-venti); settings: foliage application, 320 g/ha, three weeks after application
How it was run: as §3

[24] = tested on: southern crabgrass; experiment: Test Example 4: herbicidal effect by soil treatment (Table 19, symbol F); format: in vivo, southern crabgrass (Digitaria ciliaris); settings: amount of applied herbicide 320 g/ha
How it was run: as §1

[25] = tested on: blackgrass; experiment: Test Example 5: herbicidal effect by foliage application, plastic box (Table 20, symbol J); format: in vivo, blackgrass (Alopecurus myosuroides); settings: foliage application, 320 g/ha, three weeks after application
How it was run: as §3

[26] = tested on: green foxtail; experiment: Test Example 4: herbicidal effect by soil treatment (Table 19, symbol G); format: in vivo, green foxtail (Setaria viridis); settings: amount of applied herbicide 320 g/ha
How it was run: as §1

[27] = tested on: chickweed; experiment: Test Example 5: herbicidal effect by foliage application, plastic box (Table 20, symbol P); format: in vivo, common chickweed (Stellaria media); settings: foliage application, 320 g/ha, three weeks after application
How it was run: as §3

[28] = tested on: Italian ryegrass; experiment: Test Example 5: herbicidal effect by foliage application, plastic box (Table 20, symbol K); format: in vivo, Italian ryegrass (Lolium multiflorum); settings: foliage application, 320 g/ha, three weeks after application
How it was run: as §3

[29] = tested on: Italian ryegrass; experiment: Test Example 4: herbicidal effect by soil treatment (Table 19, symbol K); format: in vivo, Italian ryegrass (Lolium multiflorum); settings: amount of applied herbicide 320 g/ha
How it was run: as §1

[30] = tested on: oval-leafed pondweed; experiment: Test Example 1: herbicidal activity, application before weed generation under submerged conditions (Table 16, symbol C); format: in vivo, oval-leafed pondweed (Monochoria vaginalis); settings: amount of applied herbicide 320 g/ha
Excerpt: as §2

[31] = amount of applied herbicide 320 g/ha

COc1ccccc1-c1sc2cc(OS(=O)(=O)N(C)C)ccc2c1-c1c(O)c(C)nn(C)c1=O [3-134]
Herbicidal effect by soil treatment, O: lambsquarters [1]: 3 (Herbicidal rate of 40% or more and less than 70%) | Herbicidal effect by soil treatment, N: redroot pigweed [2]: 5 (Herbicidal rate of 90% or more (almost completely withered)) | Herbicidal effect, B: Japanese bulrush [3]: 4 (Herbicidal rate of 70% or more and less than 90%) | Herbicidal effect by soil treatment, M: velvetleaf [4]: 1 (Herbicidal rate of 5% or more and less than 20%) | R: persian speedwell, herbicidal effect grade [5]: 5 (Herbicidal rate of 90% or more (almost completely withered)) | Herbicidal effect by soil treatment, H: barnyard grass [6]: 0 (Herbicidal rate of 5% or less (almost no effect)) | I: wild oat, herbicidal effect grade [7]: 2 (Herbicidal rate of 20% or more and less than 40%) | Herbicidal effect by soil treatment, P: chickweed [8]: 1 (Herbicidal rate of 5% or more and less than 20%) | O: lambsquarters, herbicidal effect grade [9]: 3 (Herbicidal rate of 40% or more and less than 70%) | Herbicidal effect by soil treatment, L: windgrass [10]: 5 (Herbicidal rate of 90% or more (almost completely withered)) | herbicidal effect on rice flat sedge (E) ([11]; 320 g/ha): 3 (Herbicidal rate of 40% or more and less than 70%) | herbicidal effect on barnyard grass (H) ([12]; 320 g/ha): 3 (Herbicidal rate of 40% or more and less than 70%) | F: southern crabgrass, herbicidal effect grade [13]: 4 (Herbicidal rate of 70% or more and less than 90%) | Herbicidal effect by soil treatment, R: persian speedwell [14]: 3 (Herbicidal rate of 40% or more and less than 70%) | M: velvetleaf, herbicidal effect grade [15]: 3 (Herbicidal rate of 40% or more and less than 70%) | H: barnyard grass, herbicidal effect grade [16]: 0 (Herbicidal rate of 5% or less (almost no effect)) | G: green foxtail, herbicidal effect grade [17]: 3 (Herbicidal rate of 40% or more and less than 70%) | Herbicidal effect by soil treatment, J: blackgrass [18]: 4 (Herbicidal rate of 70% or more and less than 90%) | N: redroot pigweed, herbicidal effect grade [19]: 4 (Herbicidal rate of 70% or more and less than 90%) | Herbicidal effect by soil treatment, I: wild oat [20]: 0 (Herbicidal rate of 5% or less (almost no effect)) | herbicidal effect on Chinese sprangletop (D) ([21]; 320 g/ha): 4 (Herbicidal rate of 70% or more and less than 90%) | Herbicidal effect, A: late watergrass [22]: 3 (Herbicidal rate of 40% or more and less than 70%) | L: windgrass, herbicidal effect grade [23]: 5 (Herbicidal rate of 90% or more (almost completely withered)) | Herbicidal effect by soil treatment, F: southern crabgrass [24]: 0 (Herbicidal rate of 5% or less (almost no effect)) | J: blackgrass, herbicidal effect grade [25]: 4 (Herbicidal rate of 70% or more and less than 90%) | Herbicidal effect by soil treatment, G: green foxtail [26]: 0 (Herbicidal rate of 5% or less (almost no effect)) | P: chickweed, herbicidal effect grade [27]: 5 (Herbicidal rate of 90% or more (almost completely withered)) | K: Italian ryegrass, herbicidal effect grade [28]: 4 (Herbicidal rate of 70% or more and less than 90%) | Herbicidal effect by soil treatment, K: Italian ryegrass [29]: 4 (Herbicidal rate of 70% or more and less than 90%)

Cc1cc2sc(-c3ccc(OC(F)F)cc3)c(-c3c(O)c(C)nn(C)c3=O)c2cc1C [5-098]
Herbicidal effect, B: Japanese bulrush [3]: 0 (Herbicidal rate of 5% or less (almost no effect)) | herbicidal effect on persian speedwell (R) [5]: 5 (Herbicidal rate of 90% or more (almost completely withered)) | herbicidal effect on wild oat (I) [7]: 0 (Herbicidal rate of 5% or less (almost no effect)) | herbicidal effect on lambsquarters (O) [9]: 0 (Herbicidal rate of 5% or less (almost no effect)) | Herbicidal effect, C: oval-leafed pondweed [30]: 0 (Herbicidal rate of 5% or less (almost no effect)) | herbicidal effect on southern crabgrass (F) [13]: 0 (Herbicidal rate of 5% or less (almost no effect)) | herbicidal effect on velvetleaf (M) [15]: 0 (Herbicidal rate of 5% or less (almost no effect)) | herbicidal effect on barnyard grass (H) [16]: 0 (Herbicidal rate of 5% or less (almost no effect)) | herbicidal effect on green foxtail (G) [17]: 0 (Herbicidal rate of 5% or less (almost no effect)) | Herbicidal effect, A: late watergrass [22]: 3 (Herbicidal rate of 40% or more and less than 70%) | herbicidal effect on windgrass (L) [23]: 0 (Herbicidal rate of 5% or less (almost no effect)) | herbicidal effect on blackgrass (J) [25]: 0 (Herbicidal rate of 5% or less (almost no effect)) | herbicidal effect on Italian ryegrass (K) [28]: 0 (Herbicidal rate of 5% or less (almost no effect))

Cc1nn(C)c(=O)c(-c2c(-c3ccc(OC(F)(F)F)cc3)oc3ccc(F)cc23)c1O [9-033]
Herbicidal effect, B: Japanese bulrush [3]: 0 (Herbicidal rate of 5% or less (almost no effect)) | Herbicidal effect on E (rice flat sedge), foliage application [11, 31]: 5 (Herbicidal rate of 90% or more (almost completely withered)) | Herbicidal effect, C: oval-leafed pondweed [30]: 0 (Herbicidal rate of 5% or less (almost no effect)) | Herbicidal effect on H (barnyard grass), foliage application [12, 31]: 4 (Herbicidal rate of 70% or more and less than 90%) | Herbicidal effect on D (Chinese sprangletop), foliage application [21, 31]: 3 (Herbicidal rate of 40% or more and less than 70%) | Herbicidal effect, A: late watergrass [22]: 2 (Herbicidal rate of 20% or more and less than 40%)
